What was measured:
male Wistar rats [1] = assay: 26-day repeat-dose experiment, packed cell volume
Description: (§1) Male Wistar rats (240–340 g in body weight) were housed with five animals per cage for at least 1 week before experimentation. Blood samples from rats were collected under anesthesia (2% isoflurane in air) by puncturing the retro-orbital vein plexus with a glass capillary. In a repeat-dose, 26-day experiment, animals were administered vehicle or BAY 85-3934 at doses of 0.5 mg/kg, 1.25 mg/kg, 2.5 mg/kg, and 5 mg/kg. PCV was determined at baseline and at weekly intervals after centrifugation in a hematocrit capillary tube (Brand) for 10 min at full speed in a Haemofuge centrifuge (Heraeus). The number of reticulocytes in 5 µl blood was counted after staining with thiazol orange (Becton Dickinson) according to the manufacturer’s instructions by FACS analysis on a BD FACSCalibur system (Becton Dickinson). The efficacy of BAY 85-3934 (2.5 mg/kg, once-daily, oral) was also compared with that of rhEPO (25 IU/kg, 50 IU/kg, and 100 IU/kg, twice-weekly, s.c. injection). The time-course of induction of EPO mRNA expression and plasma EPO was determined at baseline and 0.5 h, 1 h, 2 h, 4 h, 6 h, and 8 h after oral administration of a single dose of BAY 85-3934 (5 mg/kg).

male Wistar rats [2] = assay: Time-course of kidney mRNA expression (EPO, HIF target genes) and plasma EPO after a single dose; assay type: in vivo, rat
Description: as §1
(§2) EPO was measured in plasma samples taken from rodents using a commercial ELISA kit (R&D Systems), according to the manufacturer’s instructions. Relative plasma EPO levels were given in picograms per milliliter. In cynomolgus monkeys, EPO was measured using a combination anti-human EPO ELISAs (R&D Systems and Roche Diagnostics), with human EPO as a standard. Values were given as units per liter. For determination of plasma prorenin from rats, a commercial ELISA (Oxford Biomedical Research) was used according to the manufacturer’s instructions. Hemoglobin in rodent blood samples was determined on a Cell-Dyn 3700 apparatus (Abbott Diagnostics). BAY 85-3934 plasma concentrations were determined after protein precipitation with acetonitrile/ammonium acetate using an internal standard, followed by separation using HPLC/mass spectrometry.
Total RNA was extracted from shock-frozen cell or tissue samples using the TRIzol method. Integrity of obtained RNA was checked on a Bioanalyzer (Agilent Technologies). For reverse transcription, 1 µg of total RNA was digested with RNase-free DNase I (Gibco) for 15 min at room temperature, and then reverse-transcribed using Promiscript (Promega GmbH) in a total reaction volume of 40 µl according to the standard protocol of the supplier. After inactivation of the enzyme by heating to 65°C for 15 min, the obtained cDNA was diluted to a final volume of 150 µl with double-distilled water, and 4 µl used per PCR reaction. qRT-PCR, including normalization of raw data to cytosolic β-actin, was carried out as described previously. The resulting expression is given in arbitrary units.

male Wistar rats [3] = assay: Subtotal nephrectomy (remnant kidney) model; assay type: in vivo, rat
Description: In the chronic disease models of subtotal nephrectomy and inflammation, the sodium salt of BAY 85-3934 was used. For administration in drinking water, BAY 85-3934 sodium and enalapril were prepared as 100 mM sodium bicarbonate saline solutions (adjusted to pH 7) at final concentrations of 80 ppm and 30 ppm, respectively. Sham and vehicle control animals received saline only. Unless otherwise stated, chemicals and reagents were purchased from Sigma-Aldrich.
Subtotal nephrectomy was conducted in adult male Wistar rats. Body weight, blood pressure, hematocrit, and blood cell counts were determined at baseline and thereafter at weekly intervals. At baseline, rats were randomly distributed into two groups: those that underwent subtotal nephrectomy and those that underwent a sham procedure without reduction of renal mass. Surgery was performed in deeply anesthetized (2% isoflurane in air) animals. Kidneys were accessed via a dorsolateral incision of the body wall of about 2 cm in length. The right kidney was removed after ligature of the renal peduncle, and subsequently the upper and lower pole of the left kidney were removed, followed by careful hemostasis. Approximately one third of the initial kidney mass remained (removed tissue was weighed to check this was achieved). In the sham-treated animals, both kidneys were exposed before closure of the wound. Three weeks after surgery, animals were allocated to each group in equal proportions with respect to systolic blood pressure and hematocrit values. For 5 weeks, animals were treated twice weekly with rhEPO (100 IU/kg), or once daily with […] (2.5 mg/kg or 5.0 mg/kg) or vehicle. In experiments using enalapril or a combination of BAY 85-3934 sodium and enalapril, study drugs were administered with drinking water. BAY 85-3934 sodium and enalapril were administered in drinking water at concentrations of 80 ppm and 30 ppm, respectively. This was equivalent to approximately 2 mg/kg/day for enalapril and 5 mg/kg/day for BAY 85-3934. Systolic blood pressure and heart rate were determined using the tail-cuff method (a semi-automatic, non-invasive blood pressure monitor; TSE Systems), with three repeated measurements per animal.
as §2
As well as anemia and inflammation, CKD is often accompanied by hypertension, upon which treatment with rhEPO may have an unfavorable impact. The effects of BAY 85-3934 were compared with rhEPO in the remnant kidney (subtotal nephrectomy) model in rats.

male Wistar rats [4] = assay: Subtotal nephrectomy (remnant kidney) model; assay type: in vivo, rat; conditions: same dose for 3 days, data not shown

O=c1c(-n2ccnn2)c[nH]n1-c1cc(N2CCOCC2)ncn1 [BAY 85-3934, 2-[6-(morpholin-4-yl)pyrimidin-4-yl]-4-(1H-1,2,3-triazol-1-yl)-1,2-dihydro-3H-pyrazol-3-one]
gain in mean PCV (male Wistar rats [1]; 1.25 mg/kg once daily, by day 26): approximately 3%
mean PCV gain from baseline (male Wistar rats [1]; 5 mg/kg once daily, 26 days): 17%
tolerability (male Wistar rats [1]; 0.5–5 mg/kg, 26 days): well tolerated
dose from which mean PCV is significantly elevated versus vehicle (male Wistar rats [1]; once daily oral, 26 days): ≥ 1.25 mg/kg
time of maximum EPO plasma concentration (male Wistar rats [2]; 5 mg/kg oral, single dose): 6 h
time of peak kidney EPO mRNA expression (male Wistar rats [2]; 5 mg/kg oral, single dose): 2 h
kidney mRNA induction of the other genes examined (moderate or absent) (male Wistar rats [2]; 5 mg/kg single dose): less than 2 fold
time of peak mRNA levels of HMOX-1, IGFBP-1, adrenomedullin, ANGPTL-4 (male Wistar rats [2]; 5 mg/kg single dose, kidney): 2 h
kidney ANGPTL-4 mRNA induction factor (male Wistar rats [2]; 5 mg/kg single dose, p<0.01): 3.8 fold
kidney HMOX-1 mRNA induction factor (male Wistar rats [2]; 5 mg/kg single dose, p<0.01): 3.2 fold
kidney adrenomedullin mRNA induction factor (male Wistar rats [2]; 5 mg/kg single dose, p<0.01): 2.3 fold
kidney insulin-like growth factor binding protein-1 mRNA induction factor (male Wistar rats [2]; 5 mg/kg single dose, p<0.01): 2.2 fold
kidney EPO mRNA induction over baseline (male Wistar rats [2]; 5 mg/kg single dose, peak at 2 h): about 50 fold
mean systolic blood pressure (male Wistar rats [3]; 2.5 mg/kg group): almost normalized values
systolic blood pressure versus control and rhEPO-treated animals (male Wistar rats [3]; 5 mg/kg): significantly lower
mean PCV (male Wistar rats [3]; 5 mg/kg group, 2 weeks after onset of treatment): exceeded 50%
systolic blood pressure compared with untreated controls (male Wistar rats [3]; 5 weeks, tail-cuff): sustained reduction
mean PCV (male Wistar rats [3]; BAY 85-3934 2.5 and 5 mg/kg once daily, rhEPO 100 IU/kg twice weekly): significantly increased
cardiac hypertrophy (male Wistar rats [3]; data not shown): complete prevention
plasma prorenin after the decrease in blood pressure (male Wistar rats [3]; once daily oral, 5 weeks): not followed by the return of prorenin to normal levels
blood pressure in normotensive rats (male Wistar rats [4]): did not affect blood pressure

Source: PMC4230943, “Mimicking Hypoxia to Treat Anemia: HIF-Stabilizer BAY 85-3934 (Molidustat) Stimulates Erythropoietin Production without Hypertensive Effects” (PLoS ONE, 2014)
